Here are results for one compound from PMC8159111 (Pathogens, 2021).

Type in all cases: cell-based
Data set [1] relates to SARS-CoV-2 "NRC-03-nhCoV" virus. The experiment in a line: Inhibitory concentration 50 (IC50) determination, reduction of virus-induced cytopathic effect in Vero-E6 cells. To be noted: Severe acute respiratory syndrome coronavirus 2, Vero C1008, 72 h, against NRC-03-nhCoV in Vero E6, 72 h, CPE reduction, crystal violet; unit not given in Table 4 and Figure 6, Figure 4 and text print μM; read-out: IC50 (half-maximal inhibitory concentration). The method, then:
The IC50 values for the tested compounds were determined as previously described, with minor modifications. Briefly, in 96-well tissue culture plates, 2.4 × 10^4 Vero-E6 cells were distributed in each well and incubated overnight at a humidified 37°C incubator under 5% CO2 condition. The cell monolayers were then washed once with 1× PBS. An aliquot of the SARS-CoV-2 “NRC-03-nhCoV” virus containing 100 TCID50 was incubated with serial diluted compounds and kept at 37 °C for 1 h. The Vero-E6 cells were treated with virus/compound mix and co-incubated at 37 °C in a total volume of 200 µL per well. Untreated cells infected with virus represented the virus control; however, cells that were not treated and not infected were the cell control. Following incubation at 37 °C in 5% CO2 incubator for 72 h, the cells were fixed with 100 μL of 10% paraformaldehyde for 20 min and stained with 0.5% crystal violet in distilled water for 15 min at RT. The crystal violet dye was then dissolved using 100 μL of absolute methanol per well and the optical density of the color was measured at 570 nm using the Anthos Zenyth 200 rt plate reader (Anthos Labtec Instruments, Heerhugowaard, the Netherlands).
For orientation: Damage to the host cells serves as the signal in cytopathic effect assays.

Data set [2] has as its system MERS-CoV virus "NRCE-HKU270". The experiment in a line: microbe, parasite or virus in culture. To be noted: Middle East respiratory syndrome-related coronavirus, Vero C1008, read-out: IC50 (half-maximal inhibitory concentration).
Data set [3] can be described thus: Cytotoxicity (CC50) determination, crystal violet assay. To be noted: African green monkey, Vero E6 cells, Table 4 prints no unit, Figure 4 prints μM, read-out: CC50 (half-maximal cytotoxic concentration). The protocol: To assess the half maximal cytotoxic concentration (CC50), stock solutions of the test compounds were prepared in 10% DMSO in ddH2O and diluted further to the working solutions with DMEM. The cytotoxic activity of the extracts was tested in VERO-E6 cells by using crystal violet assay as previously described with minor modifications. Briefly, the cells were seeded in 96-well plates (100 µL/well at a density of 3 × 10^5 cells/mL) and incubated for 24 h at 37 °C in a humidified 5% CO2 incubator. After 24 h, cells were treated with various concentrations of the tested compounds in triplicates. Seventy two hours later, the supernatant was discarded, and cell monolayers were fixed with 10% formaldehyde for 1 h at room temperature (RT). The fixed monolayers were then dried and stained with 50 µL of 0.1% crystal violet for 20 min on a bench rocker at RT. The monolayers were then washed, dried and the crystal violet dye in each well was then dissolved with 200 µL of methanol for 20 min on a bench rocker at RT. The absorbance of crystal violet solutions was measured at λmax 570 nm as a reference wavelength using a multi-well plate reader.

The subject of data set [4] is NRC-03-nhCoV (SARS-CoV-2) in Vero-E6 cells. The data set is described as follows: Mode of antiviral action, plaque infectivity reduction assay (adsorption, replication, virucidal). The protocol:
To investigate whether the tested compound with high selectivity index and antiviral activity against NRC-03-nhCoV affect (a) viral adsorption, (b) viral replication or (c) viricidal effect, a plaque infectivity reduction assay was performed according to the following protocols: • (a) Viral adsorption mechanism
The viral adsorption mechanism was assayed according to a protocol by Zhang et al. with minor modifications. Vero-E6 cells were cultivated in a 6-well plate (10^5 cells/mL) for 24 h at 37 °C. Each tested drug was applied in 500 µL of medium without supplements and co-incubated with the cells for 2 h at 4 °C. The non-absorbed drug in the applied inocula was removed by washing cells three times with 1x PBS. The NRC-03-nhCoV was diluted to a countable range “10^−4” and co-incubated with the pretreated cells. About 1 h post-incubation, the inocula were removed and 3 mL of agarose overlay (1:1 mixture of warmed 2× plaque media and a stock solution of heated 2% agarose) were added. The plates were kept at room temperature to solidify and then incubated at 37 °C to allow the formation of viral plaques. The plaques were fixed using 10% formaldehyde, stained using crystal violet (1% crystal violet in 20% ethanol and distilled H2O), washed with rinse water and dried to calculate the percentage reduction in plaque formation compared to control wells, which comprised untreated Vero-E6 cells directly infected with NRC-03-nhCoV.
The impact of the tested drug on viral replication was determined as previously described. Vero-E6 cells were cultivated in a 6-well plate (10^5 cell/mL) for 24 h at 37 °C. The NRC-03-nhCoV of the countable range was inoculated directly to the cells and incubated for 1 h at 37 °C. The inocula containing the non-adsorbed virus were removed by washing infected cell monolayers three times with 1× PBS. The analyzed compound was then applied in varying concentrations to infected cells for another 1 h contact time at 37 °C. After removing the inocula containing the tested drug, agarose overlay were added to the cells. […]

Consider `CC1(C)CCC2(C(=O)OCc3cc(-c4ccc(Cl)cc4)no3)CCC3(C)C(=CCC4C5(C)CC(O)C(O)C(C)(C)C5CCC43C)C2C1` (stereo not drawn) [Compound 17, (3-(4-chlorophenyl)isoxazol-5-yl) methyl-(2α,3β)-2,3-dihydroxyolean-12-en-28-oate], for which the results for the IC50 in data set [1] and in data set [2] were 4.12 µM and 6.25 µM, respectively. Also, the CC50 at 72 h in data set [3] worked out at 142 µM. Moreover, in data set [4] (Vero-E6 cells pretreated with compound 2 h at 4 °C), the “effect on viral adsorption” value was “efficiently impair viral replication and adsorption”. In data set [4] (compound applied to infected Vero-E6 cells after adsorption), the “effect on viral replication” value is on record as “efficiently impair viral replication”. For the same compound, the virucidal effect result in data set [4] (virus mixed with compound 1 h before infection of Vero-E6) is “virucidal effect”.
